Reference: patent US20190175685A1, “METHODS OF TREATING AND PREVENTING CANCER TREATMENT SIDE EFFECTS” (FILAMENT BIOSOLUTIONS INC., priority 2016, published 2019)
“Also recorded” adds a separate entry of the source. Residues, ends and D or L forms follow the SMILES beside them.

How the values were obtained:
[1] = Plasma glutamine levels after a single oral gavage dose in rats; type: in vivo, male Sprague Dawley rats; settings: for change in plasma glutamine levels versus pre-dose: high, medium and low dose, 3 to 540 minutes after dose, UHPLC/MS/MS
Protocol: Alanyl-Glutamine and glutamine were administered as a single dose by oral gavage, with deionized water as the vehicle, into male Sprague Dawley rats. The oral gavage of Alanyl-Glutamine and glutamine was administered to different groups at three distinct levels, a high, medium and low dose. Each dose level contained molar equivalent amounts of Glutamine (doses selected to correspond to relevant human doses) so that the resulting changes in plasma Glutamine levels could be directly compared in vivo. The concurrent control group received the vehicle (deionized water) by oral gavage. The dose volume was 20 ml/kg for the oral gavage. Each treatment group consisted of three males. For pharmacokinetic evaluation, blood samples were collected via a jugular vein cannula (JVC) from 3 animals/group/time point prior to dose administration and at 3, 10, 20, 40, 60, 90, 180, 360, and 540 minutes after dose administration. Each sample was analyzed to determine plasma glutamine concentration using a qualified ultra-high performance liquid chromatography mass spectrometry method (UHPLC/MS/MS), developed expressly for the determination of glutamine levels in rat plasma. A subtractive analysis of the plasma levels was then performed, in which the data from each individual animal was subtracted from their pre-dose plasma glutamine levels. The resulting data-points were then averaged for each dosing group and graphed, and represent the change in plasma glutamine after administration of the two different compositions.

[2] = tested on: small intestinal crypt survival and regeneration; experiment: Intestinal crypt survival after irradiation in a murine model; type: in vivo, mice; settings: for number of surviving and regenerating crypts, pre-irradiation treatment versus treatment concurrent with radiation: oral twice daily 0.2 ml, day -5 to +4 compared with day 0 to +4, 13 Gy on day 0, scored day 4 post-irradiation
Source text: In this example irradiation was used to target the proliferating clonogenic cells of the crypt. Following irradiation, crypt cells can become impaired and undergo apoptosis, or programmed cell death, resulting in a reduction in the number of viable crypts, which could regenerate and heal the intestinal tissue. The more crypts that are lost the greater the level of ulceration, which can manifest as the symptoms of mucositis. […] This model of crypt cell survival is therefore often used as a surrogate for manifestation of mucositis, e.g., oral mucositis.
In this example the efficacy of orally administered Alanyl-Glutamine (Ala-Gln) and Glutamine (Gln) on small intestinal crypt survival and regeneration and maintenance of villus structure was assessed in response to radiation insult in a murine model. The crypt cells were measured at 4 days post high-dose irradiation, a time at which crypt cells affected by radiation have died and surviving cells begin to regenerate. The level of crypt cell survival at this time directly correlates to severity of ulceration and ultimately animal survival.
Ala-Gln and Gin were administered orally twice daily at a volume of 0.2 ml either pre- and post-irradiation (day −5 to day 4), or post-irradiation alone (day 0 to day 4). The animals were given doses of Ala-Gln at a concentration of 39.65 mg/ml and Gln at a concentration of 26.75 mg/ml, which contain molar equivalent doses of Gin. Vehicle control animals were administered 0.2 ml of water orally twice daily.
Animals were irradiated on day 0 at 3 pm. Irradiation was performed using an XStrahl RS320 X-ray set, operated at 300 Kv, 10 Ma. Radiation was delivered at a dose rate of 0.832 Gy/min using a single uniform dose of 13 Gy radiation. A dosimetry device was placed in the irradiation chamber to confirm the dose received. […]
For each animal in the study, ten intestinal circumferences were analyzed, providing a total of 80 circumferences per treatment group available for analysis. The number of surviving and regenerating crypts per circumference was scored and the average per group was determined.

Row | SMILES | plasma glutamine levels, Alanyl-Glutamine versus glutamine at equivalent molar doses ([1]; each of three dose levels (high, middle, low)) | change in plasma glutamine levels versus pre-dose [1] | average number of crypts, Ala-Gln versus Gln ([2]; groups treated pre-irradiation (-5 to +4), molar equivalent doses of Gln, 13 Gy, scored day 4) | number of surviving and regenerating crypts, pre-irradiation treatment versus treatment concurrent with radiation [2]
1 | C[C@H](N)C(=O)N[C@@H](CCC(N)=O)C(=O)O [Alanyl-Glutamine, L-alanyl-L-glutamine] (H-Ala-Gln-OH) | higher plasma glutamine levels at each dose; also recorded: increased more | increase in glutamine levels in the plasma at all dose levels | higher average number of crypts | significantly more crypts
2 | NC(=O)CC[C@H](N)C(=O)O [glutamine, reference compound] | – | increase in glutamine levels in the plasma at all dose levels | – | significantly more crypts
